Two compounds from patent US7645595B2, “Method of production of artificial skin” (Shiseido Company, Ltd., priority 2000, dated 2010) can be followed below.

Assay [1] concerns Skin Model (artificial skin); basement membrane components laminin 5, type IV collagen, type VII collagen. Kind of assay: Artificial skin culture with MMP inhibitor and matrix protein production promoting agent: H&E staining and immunostaining for LN5, IVC, VIIC (Example 2, Table 1, FIG. 2-4). Particulars: CGS27023A 10 μM, TGFa/TGFb1 10 ng/ml, versus control. The assay is classed as cell-based, human. The method, then:
Although the same method as Example 1 was repeated, the following substances were used as test substances. • (1) 10 μM matrix metalloproteinase inhibitor CGS27023A only; • (2) 10 μM matrix metalloproteinase inhibitor CGS27023A and 10 ng/ml of matrix […] protein production promoting agent, Transforming Growth Factor α (TGFa); • (3) 10 μM matrix metalloproteinase inhibitor CGS27023A and 10 ng/ml of matrix protein production promoting agent, Transforming Growth Factor β1 (TGFb1); • (4) 10 μM matrix metalloproteinase inhibitor CGS27023A, 10 ng/ml of matrix protein production promoting agent, Transforming Growth Factor α (TGFa) and 10 ng/ml of Transforming Growth Factor β1 (TGFb1); and • (5) culturing of a control to which none of the above were added. The formed artificial skin was stained by hematoxylin-eosin (H & E) and immunostaining (using anti-laminin 5 (LN5) antibody, anti-type IV collagen (IVC) antibody, and anti-type VII collagen (VIIC) antibody). Culturing was carried out in the same manner as above using the following plant extracts instead of the above matrix metalloproteinase inhibitor CGS27023A.

Assay [2] relates to artificial skin (skin model: contracted collagen gel with human dermal fibroblasts plus epidermal keratinocytes). The assay is described as follows: Artificial skin culture with matrix metalloproteinase inhibitor: basement membrane formation seen in cross-section (Example 1, FIG. 1). Particulars: cultured 2 weeks, versus control without inhibitor. The assay is classed as cell-based. The method, then: Collagen gel was obtained by preparing 10 ml of a collagen solution of suspended fibroblasts (0.3 to 1×10^5 cells/ml) originating in human dermis (product I-AC of Koken Co., Ltd. was used for the collagen) on ice followed by gelling the collagen at 37° C. in a 60 mm Petri dish. Next, the gel was peeled from the walls of the Petri dish and the collagen gel was contracted in a CO2 incubator.
This contracted collagen gel equivalent to dermis was placed on a metal mesh and a glass ring (inner diameter: 12 mm) was placed over this gel. 0.4 ml of a suspension of epidermal keratinocytes (1×10^6/ml) (mixed medium of KGM-DMEM containing 5% fetal calf serum (1:1)) were placed inside the glass ring to prevent leakage of liquid. After adhering keratinocytes in a CO2 incubator overnight, the ring was removed on the following day.
After inoculating the epidermic cells, the medium was changed to that containing either (1) 10 μM CGS27023A (matrix metalloproteinase inhibitor) or (2) 300 μM MMP-inhibitor (p-NH2-Bz-Gly-Pro-D-Leu-D-Ala-NHOH (FN-437) (BBRC, 1994, 199, p. 1442-1446) (acquired from Cabbiochem. Novabiochem Corporation) (matrix metalloproteinase inhibitor)) starting in the first week, and then replaced with medium containing the same type and same concentration of matrix metalloproteinase inhibitor every 2-3 days after that and cultured for 2 weeks. […]

As for `COc1ccc(S(=O)(=O)N(Cc2cccnc2)[C@@H](C(=O)NO)C(C)C)cc1.Cl` [CGS27023A, N-hydroxy-2(R)-[[(4-methoxyphenyl)sulfonyl](3-picolyl)amino]-3-methylbutanamide hydrochloride], the “Adhesion between epidermis and dermis” value in assay [1] is “adhesion between the epidermis and dermis was clear”. For the same compound, the “Promotion of basement membrane formation (FIG. 1)” value in assay [2] (10 μM in medium) is “promotion of basement membrane formation was clearly observed”.
On to “p-NH2-Bz-Gly-Pro-D-Leu-Ala-NHOH [MMP-inhibitor]”, for which the “Promotion of basement membrane formation (FIG. 1)” value in assay [2] (300 μM in medium) is listed as “promotion of basement membrane formation was clearly observed”.
